Results published in patent US20260176289A1, “SMALL MOLECULE INHIBITORS OF KRAS PROTEINS” (Merck Sharp & Dohme LLC, priority 2022, published 2026).
Where two headings read alike, the source gives them in different places.

Experiments:
KRAS-WT = KRAS-WT (Homo sapiens, UniProt P01116); experiment: SOS-catalyzed nucleotide exchange assay (Procedure A, TR-FRET), KRAS-WT; type: biochemical; conditions: nucleotide exchange, read-out: KRAS WT GNE IC50
How it was run: (§1)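 RAS (G12C carries C51S/C80L/C118S) loaded with Bodipy-GDP, complexed with Tb-streptavidin; cpd 60 min RT; + SOS/3 mM GTP. G12C 3/40 nM, WT 1/40, NRAS 1.25/40 nM RAS/SOS, 60 min; G12V 1.25/160 nM, 90 min. Normalized to DMSO and saturating inhibitor; 4PL fit.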

[1] = target: KRAS-G12C (C51S/C80L/C118S) (Homo sapiens, UniProt P01116, C118S/C51S/C80L/G12C); experiment: SOS-catalyzed nucleotide exchange assay (Procedure A, TR-FRET), KRAS-G12C; type: biochemical; conditions: nucleotide exchange, Procedure A; read-out: KRAS G12C GNE IC50
How it was run: as §1

KRAS-G12D = KRAS-G12D (Homo sapiens, UniProt P01116, G12D); experiment: SOS-catalyzed nucleotide exchange assay (Procedure A, TR-FRET), KRAS-G12D; type: biochemical; conditions: nucleotide exchange, read-out: KRAS G12D GNE IC50
How it was run: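 Signal ratio (520/495 nm, excitation 340 nm) reports Bodipy-GDP retention on biotinylated RAS after SOS-catalyzed exchange with 3 mM GTP. SOS was 40 nM, except 160 nM for G12V. Room-temperature exchange lasted 60 min (90 min for G12V), following a 60 min compound preincubation.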

KRAS-G12V = KRAS-G12V (Homo sapiens, UniProt P01116, G12V); experiment: SOS-catalyzed nucleotide exchange assay (Procedure A, TR-FRET), KRAS-G12V; type: biochemical; conditions: nucleotide exchange, read-out: KRAS G12V GNE IC50
How it was run: as §1

KRAS-G13D = KRAS-G13D (Homo sapiens, UniProt P01116, G13D); experiment: SOS-catalyzed nucleotide exchange assay (Procedure A, TR-FRET), KRAS-G13D; type: biochemical; conditions: nucleotide exchange, Procedure A; read-out: KRAS G13D GNE IC50
PANC08.13 cells = experiment: Cellular phospho-ERK assay, PANC08.13 cells (homozygous KRAS-G12D); type: cell-based; conditions: Homo sapiens, read-out: PANC-08.13 pERK IC50
Method: Procedure for Cellular Phospho-ERK Assay in KRAS Wild Type and Mutant (G12D, G12V) Cell Lines
MKN-1 cells (JCRB JCRB0252) containing amplified wild-type KRAS, were cultured in growth medium that contains RPMI 1640-GlutaMAX™-I (ThermoFisher Scientific 61870) containing 10% heat inactivated fetal bovine serum (ThermoFisher Scientific 10091148), 1 mM sodium pyruvate and 10 mM HEPES. PANC08.13 cells (ATCC® CRL-2551™), containing homozygous KRAS-G12D activating mutation, were cultured in growth medium made of RPMI1640-GlutaMAX™-I (ThermoFisher Scientific 61870) containing 15% heat inactivated fetal bovine serum (ThermoFisher Scientific 10091148)). AsPC-1 cells (ATCC® CRL-1682™), containing homozygous KRAS-G12D activating mutation, were cultured in T150 flask in growth medium (RPMI medium 1640-GlutaMAX™-I (ThermoFisher Scientific 61870) containing 10% fetal bovine serum (ThermoFisher Scientific 10091148)). SW620 cells (ATCC® […]), containing homozygous KRAS-G12V activating mutation, were cultured in growth medium that contains RPMI 1640-GlutaMAX™-I (ThermoFisher Scientific 61870) containing 10% heat inactivated fetal bovine serum (ThermoFisher Scientific 10091148).
Cells for the assay were harvested in growth medium after TrypLE (ThermoFisher scientific 12604021) digestion and were seeded in a 384-well collagen coated cell culture plate (Corning 356702) at a density of 10,000-15,000 cells/20 μL/well, and incubated at 37° C., 5% CO2 overnight. The compound (with 10 mM stock concentration) dose-response titrations were prepared [30 μM final ERK detection assay concentration and 1:3 dilutions, 10-point dose response] and appropriate amounts (270 nL) of test compounds were dispensed in a 384-well intermediate plate using an Echo 550 liquid handler. 30 μL/well of RPMI medium 1640-GlutaMAX™—I was added to the intermediate plate and the contents of the intermediate plate (10 μL/well) were then transferred to the 384-well collagen coated cell culture plate, which was incubated at 37° C., 5% CO2 for 2 hours. After removal of medium from the collagen coated cell culture plate, cells were lysed in lysis buffer from Alpha SureFire® Ultra™ Multiplex p-ERK and total ERK assay kit (PerkinElmer MPSU-PTERK) containing Halt™ Protease and Phosphatase inhibitor cocktail (ThermoFisher Scientific 78446) at room temperature with constant shaking at 300 rpm for 30 minutes. The cell lysates were then transferred to an OptiPlate-384 plate (PerkinElmer 6005620), and the phosphorylation of ERK (p-ERK) and total ERK levels were detected by Alpha SureFire® Ultra™ Multiplex p-EEK kit and total ERK assay kit (PerkinElmer MPSU-PTERK) following the manufacturer's protocol. Assay plates were read on a En Vision Multimode Plate Reader (PerkinElmer), and the ratio of p-ERK vs. total ERK in each well was used as the final readout. Dose response curves were analyzed using a 4-parameter logistic model to calculate IC50 values using Spotfire software.

[2] = PANC-08-13, 2 hours compound incubation

KRAS-G12D, sequence (P01116 with tags, fused parts or gaps isoform P01116-2 G12D): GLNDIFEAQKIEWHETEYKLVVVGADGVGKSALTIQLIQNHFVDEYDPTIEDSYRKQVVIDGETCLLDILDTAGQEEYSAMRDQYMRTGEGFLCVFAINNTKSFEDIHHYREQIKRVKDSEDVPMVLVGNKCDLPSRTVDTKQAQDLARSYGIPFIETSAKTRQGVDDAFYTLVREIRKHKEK
KRAS-G12C (C51S/C80L/C118S), sequence (P01116 with tags, fused parts or gaps isoform P01116-2 G12C/C51S/C80L/C118S): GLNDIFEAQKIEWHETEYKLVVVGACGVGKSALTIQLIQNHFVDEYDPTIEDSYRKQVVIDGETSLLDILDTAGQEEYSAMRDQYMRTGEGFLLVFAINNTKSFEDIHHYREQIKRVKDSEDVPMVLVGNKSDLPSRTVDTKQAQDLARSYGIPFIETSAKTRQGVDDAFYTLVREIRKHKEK
KRAS-G13D, sequence (P01116 with tags, fused parts or gaps isoform P01116-2 G13D): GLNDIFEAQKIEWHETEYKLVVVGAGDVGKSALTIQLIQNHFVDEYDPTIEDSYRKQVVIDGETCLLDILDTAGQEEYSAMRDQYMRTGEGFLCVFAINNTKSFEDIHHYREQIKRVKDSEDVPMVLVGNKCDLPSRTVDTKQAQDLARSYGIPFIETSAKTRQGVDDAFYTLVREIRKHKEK
KRAS-G12V, sequence (P01116 with tags, fused parts or gaps isoform P01116-2 G12V): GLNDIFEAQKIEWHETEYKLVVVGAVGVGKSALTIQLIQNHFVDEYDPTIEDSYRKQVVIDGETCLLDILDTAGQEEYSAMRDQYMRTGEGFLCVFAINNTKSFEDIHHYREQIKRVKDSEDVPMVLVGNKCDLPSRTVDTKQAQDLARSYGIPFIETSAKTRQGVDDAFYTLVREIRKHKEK
KRAS-WT, sequence (P01116 with tags, fused parts or gaps isoform P01116-2): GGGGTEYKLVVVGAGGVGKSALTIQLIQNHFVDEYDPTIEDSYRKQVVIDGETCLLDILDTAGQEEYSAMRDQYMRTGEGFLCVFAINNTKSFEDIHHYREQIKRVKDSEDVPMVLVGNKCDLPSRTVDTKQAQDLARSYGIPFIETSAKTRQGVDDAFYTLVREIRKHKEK

| IC50 (KRAS-WT) [µM] | IC50 [1] [µM] | IC50 (KRAS-G12D) [µM] | IC50 (KRAS-G12V) [µM] | IC50 (KRAS-G13D) [µM] | IC50 (PANC08.13 cells; PANC-08-13, KRAS-G12D, 2 hours) [µM] | IC50 (PANC08.13 cells; [2]) [µM] | SMILES |
| --- | --- | --- | --- | --- | --- | --- | --- |
| 0.929 | 0.224 | 0.705 | 0.492 | 1.02 | 0.749 | – | CCn1c2nc(OC[C@@]34CCCN3C[C@H](F)C4)nc(N3CCOC[C@@](C)(O)C3)c2c2ccnc(-c3c(C(F)(F)F)c(C)cc4[nH]ncc34)c21 [Ex-24, (6S)-4-(9-ethyl-2-(((2R,7aS)-2-fluorotetrahydro-1H-pyrrolizin-7a(5H)-yl)methoxy)-8-(6-methyl-5-(trifluoromethyl)-1H-indazol-4-yl)-9H-pyrido[4′,3′:4,5]pyrrolo[2,3-d]pyrimidin-4-yl)-6-methyl-1,4-oxazepan-6-ol] |
| 2.76 | 0.124 | 7.6 | 1.6 | 1.32 | – | 3.9 | Cc1cc2[nH]ncc2c(-c2nccc3c2sc2nc(OC[C@@]45CCCN4C[C@H](F)C5)nc(N4CCOCC4)c23)c1C(F)(F)F [Ex-179, 4-(2-(((2R,7aS)-2-fluorotetrahydro-1H-pyrrolizin-7a(5H)-yl)methoxy)-8-(6-methyl-5-(trifluoromethyl)-1H-indazol-4-yl)pyrido[4′,3′:4,5]thieno[2,3-d]pyrimidin-4-yl) morpholine] |
| 1.2 | 0.19 | 1.43 | 0.657 | 0.789 | 3.06 | – | Cc1cc2[nH]ncc2c(-c2nccc3c4c(N5CCOCC(O)C5)nc(OC[C@@]56CCCN5C[C@H](F)C6)nc4n(C)c23)c1C(F)(F)F (single isomer, unassigned) [Ex-23] |
| 1.23 | 0.456 | 0.36 | 0.574 | 1.1 | 0.561 | – | Cc1cc2[nH]ncc2c(-c2cncc3c2sc2nc(OC[C@@]45CCCN4C[C@H](F)C5)nc(N4CCOC[C@@](C)(O)C4)c23)c1C(F)(F)F [Ex-273, (6S)-4-(2-(((2R,7aS)-2-fluorotetrahydro-1H-pyrrolizin-7a(5H)-yl)methoxy)-8-(6-methyl-5-(trifluoromethyl)-1H-indazol-4-yl)pyrido[3′,4′:4,5]thieno[2,3-d]pyrimidin-4-yl)-6-methyl-1,4-oxazepan-6-ol] |
| 1.28 | 0.241 | 0.906 | 0.657 | 1.06 | – | 1.7 | C#Cc1c(F)ccc2nc(N)cc(-c3nccc4c3sc3nc(OC[C@@]56CCCN5C[C@H](F)C6)nc(N5CCOC[C@@](C)(O)C5)c34)c12 [Ex-178, (S)-4-(8-(2-amino-5-ethynyl-6-fluoroquinolin-4-yl)-2-(((2R,7aS)-2-fluorotetrahydro-1H-pyrrolizin-7a(5H)-yl)methoxy)pyrido[4′,3′: 4.5]thieno[2,3-d]pyrimidin-4-yl)-6-methyl-1,4-oxazepan-6-ol] |
| 7.21 | 0.648 | 1.16 | 0.876 | 2.31 | – | 2.68 | C[C@@]1(O)COCCN(c2nc(OC[C@@]34CCCN3C[C@H](F)C4)nc3sc4c(-c5c(C(F)F)ccc6[nH]ncc56)nccc4c23)C1 [Ex-134] |
| 1.81 | 0.3 | 1.42 | 1.02 | 0.592 | 3.75 | – | C#Cc1c(F)ccc2cc(N)nc(-c3nccc4c5c(N6CCOC[C@@](C)(O)C6)nc(OC[C@@]67CCCN6C[C@H](F)C7)nc5n(C)c34)c12 [Ex-17, (S)-4-(8-(3-amino-8-ethynyl-7-fluoroisoquinolin-1-yl)-2-(((2R,7aS)-2-fluorotetrahydro-1H-pyrrolizin-7a(5H)-yl)methoxy)-9-methyl-9H-pyrido[4′,3′:4,5]pyrrolo[2,3-d]pyrimidin-4-yl)-6-methyl-1,4-oxazepan-6-ol] |
| 0.681 | 0.233 | 0.276 | 0.404 | 0.543 | 0.561 | – | Cc1nc2[nH]ncc2c(-c2nccc3c4c(N5CCOC[C@@](C)(O)C5)nc(OC[C@@]56CCCN5C[C@H](F)C6)nc4n(C)c23)c1C(F)(F)F [Ex-14, (6S)-4-(2-(((2R,7aS)-2-fluorotetrahydro-1H-pyrrolizin-7a(5H)-yl)methoxy)-9-methyl-8-(6-methyl-5-(trifluoromethyl)-1H-pyrazolo[3,4-b]pyridin-4-yl)-9H-pyrido[4′,3′:4,5]pyrrolo[2,3-d]pyrimidin-4-yl)-6-methyl-1,4-oxazepan-6-ol] |
| 2.75 | 1.48 | 3.66 | 1.66 | 4.86 | 4.3 | – | Cc1n[nH]c2cc(Cl)c(C(F)F)c(-c3nccc4c5c(N6CCOC[C@@](C)(O)C6)nc(OC[C@@]67CCCN6C[C@H](F)C7)nc5n(C)c34)c12 (single isomer, unassigned) [Ex-13] |
| 0.33 | 0.121 | 0.671 | 0.401 | 0.0876 | 1.01 | – | C[C@@]1(O)COCCN(c2nc(OC[C@@]34CCCN3C[C@H](F)C4)nc3sc4c(-c5ccc(F)c6sc(N)c(C#N)c56)cncc4c23)C1 [Ex-274, 2-amino-7-fluoro-4-(2-(((2R,7aS)-2-fluorotetrahydro-1H-pyrrolizin-7a(5H)-yl)methoxy)-4-((S)-6-hydroxy-6-methyl-1,4-oxazepan-4-yl)pyrido[3′,4′:4,5]thieno[2,3-d]pyrimidin-8-yl)benzo[b]thiophene-3-carbonitrile] |
| 1.35 | 0.566 | 0.616 | 0.575 | 0.56 | 1.69 | – | Cc1cc2[nH]nc(C#N)c2c(-c2nccc3c4c(N5CCOC[C@@](C)(O)C5)nc(OC[C@@]56CCCN5C[C@H](F)C6)nc4n(C)c23)c1C(F)F (single isomer, unassigned) [Ex-9] |
| 0.377 | 0.116 | 0.153 | 0.207 | 0.21 | 0.306 | – | Cc1cc2[nH]ncc2c(-c2nccc3c2oc2nc(OC[C@]4(CN(C)C)CC4(F)F)nc(N4CCOC[C@@](C)(O)C4)c23)c1C(F)(F)F [Ex-291, (6S)-4-(2-(((R)-1-((dimethylamino)methyl)-2.2-difluorocyclopropyl)meth-oxy)-8-(6-methyl-5-(trifluoromethyl)-1H-indazol-4-yl)pyrido[4′,3′:4,5]furo[2,3-d]pyrimidin-4-yl)-6-methyl-1,4-oxazepan-6-ol] |
| 0.568 | 0.124 | 0.339 | 0.536 | 0.43 | 1.64 | – | Cc1cc2[nH]nc(C#N)c2c(-c2nccc3c4c(N5CCOC[C@@](C)(O)C5)nc(OC[C@@]56CCCN5C[C@H](F)C6)nc4n(C)c23)c1C(F)(F)F (single isomer, unassigned) [Ex-4] |
